The target of this assay is T1, Human IDO (Homo sapiens, UniProt P14902).
T1 construct: High control is Hela cells with IFNγ treatment; endogenous in cells; host or cells: HeLa cells treated with 25 ng/ml IFNγ
Put plainly: HeLa cell IDO assay (IFNγ-treated cells, N-formylkynurenine by RapidFire/MS/MS). It counts as cell-based. The note with it: 25 ng/ml IFNγ, 200 μM Trp, 48 hours, class symbol.

Bounds are passed on as bounds.

T1 sequence (P14902 whole entry): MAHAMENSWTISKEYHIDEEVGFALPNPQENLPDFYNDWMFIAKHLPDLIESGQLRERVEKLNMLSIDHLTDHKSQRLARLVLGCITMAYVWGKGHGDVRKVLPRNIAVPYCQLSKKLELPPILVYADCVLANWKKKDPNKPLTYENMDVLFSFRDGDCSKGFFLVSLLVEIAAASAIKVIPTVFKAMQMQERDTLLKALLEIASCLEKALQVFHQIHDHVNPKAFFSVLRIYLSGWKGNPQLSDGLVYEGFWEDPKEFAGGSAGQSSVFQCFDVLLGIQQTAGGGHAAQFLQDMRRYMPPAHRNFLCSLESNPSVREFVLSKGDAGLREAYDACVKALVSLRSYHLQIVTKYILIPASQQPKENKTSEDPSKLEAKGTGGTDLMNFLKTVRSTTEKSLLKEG

As to `O=C(Nc1ccc(Cl)cc1)C1(C2CCN(c3ccnc4ccc(F)cc34)CC2)CC1` [Compound 26-8, N-(4-chlorophenyl)-1-[1-(6-fluoroquinolin-4-yl)piperidin-4-yl]cyclopropane-1-carboxamide], the IC50 – broadly, the concentration at which inhibition is half-maximal – was under 0.1 µM. Under `O=C(Nc1ccc(I)cc1)[C@H]1C[C@]12CC[C@H](c1ccnc3ccc(F)cc31)CC2` (single isomer, unassigned) [Compound 4-5] stands under 0.1 µM; under `O=C(Nc1ccc(Cl)nc1)[C@H]1C[C@]12CC[C@H](c1ccnc3ccc(F)cc31)CC2` [Compound 1-23], under 0.1 µM.

As for `O=C(Nc1ccc(F)cn1)[C@H]1C[C@]12CC[C@H](c1ccnc3ccc(F)cc31)CC2` [Compound 2-6], the IC50 is under 0.1 µM. Regarding `O=C(Nc1ccc(-n2cccn2)cc1)[C@H]1C[C@]12CC[C@H](c1ccnc3ccc(F)cc31)CC2` [Compound 1-22], the IC50 was in the range of 0.1 to 1 µM. As for `O=C(Nc1ccc(Br)cc1)[C@H]1C[C@]12CC[C@H](c1ccnc3ccc(F)cc31)CC2` (single isomer, unassigned) [Compound 4-4], the figure is under 0.1 µM; as for `N#Cc1ccc(C(=O)N[C@H]2CC3(CC[C@H](c4ccnc5ccc(F)cc54)CC3)C2)cc1` (some centres unmarked) [Compound 17-8], under 0.1 µM.

`O=C(Nc1ccc(Cl)cc1)C1([C@H]2CC[C@H](c3ccnc4ccc(F)cc43)CC2)CC1` [Compound 24-5B, N-(4-chlorophenyl)-1-(4-(6-fluoroquinolin-4-yl)cyclohexyl)cyclopropyl-1-carboxamide] had a 50% inhibitory concentration (IC50) of under 0.1 µM. As for `O=C(Nc1ccc(Cl)cc1)C1CC12CCC(c1ccnc3ccc(F)cc13)CC2` (centres unmarked) [Compound 1-9, N-(4-chlorophenyl)-6-(6-fluoroquinolin-4-yl)spiro[2.5]octane-1-carboxamide], the figure is under 0.1 µM; as for `O=C(Nc1ccc(Cl)cc1)C1(F)CC12CCC(c1ccnc3ccc(F)cc13)CC2` (centres unmarked) [Compound 10-4, N-(4-chlorophenyl)-1-fluoro-6-(6-fluoroquinolin-4-yl)spiro[2.5]octane-1-carboxamide], 0.1 to 1 µM. As for `O=C(Nc1ccc(Cl)c(F)c1)[C@H]1C[C@]12CC[C@H](c1ccnc3ccc(F)cc31)CC2` [Compound 1-19], the figure is under 0.1 µM; as for `O=C(Nc1ccc(Cl)cc1)C1CC2(CCC(c3ccnc4ccncc34)CC2)C1` (single isomer, unassigned) [Compound 20-8, N-(4-chlorophenyl)-7-(1,6-naphthyridin-4-yl)spiro[3.5]nonane-2-carboxamide], under 0.1 µM; as for `O=C(Nc1cccc(Cl)c1)[C@H]1C[C@]12CC[C@H](c1ccnc3ccc(F)cc31)CC2` [Compound 1-15], 0.1 to 1 µM. As for `O=C(Nc1ccc(Cl)cc1)C1CC2(CCN(c3ccnc4ccc(F)cc34)CC2)C1` [Compound 19-3, N-(4-chlorophenyl)-7-(6-fluoroquinolin-4-yl)-7-azaspiro[3.5]nonane-2-carboxamide], the figure is 0.1 to 1 µM; as for `COc1ccc2ncnc([C@H]3CC[C@@]4(CC3)C[C@@H]4C(=O)Nc3ccc(Cl)cc3)c2c1` [Compound 8-4E], 0.1 to 1 µM; as for `O=C(Nc1ccc(Cl)cc1)C1CC2(CCC(c3ccnc4ccncc34)CC2)C1` (single isomer, unassigned) [Compound 20-9, N-(4-chlorophenyl)-7-(1,6-naphthyridin-4-yl)spiro[3.5]nonane-2-carboxamide], over 1 µM.

In turn, `O=C(Nc1ccc(C(F)(F)F)cc1)[C@H]1C[C@]12CC[C@H](c1ccnc3ccc(F)cc31)CC2` [Compound 2-4] displayed an IC50 of 0.1 to 1 µM. Under `O=C(Nc1ccc(Cl)cc1)C1CC12CCC(c1ccnc3ccc(F)cc13)CC2` (centres unmarked) [Compound 5-4, N-(4-chlorophenyl)-6-(6-fluoroquinolin-4-yl)spiro[2.5]octane-1-carboxamide] stands 0.1 to 1 µM; under `O=C(NC1CC2(CCC(c3ccnc4ccc(F)cc34)CC2)C1)c1ccc(Cl)cc1` (single isomer, unassigned) [Compound 17-6, 4-chloro-N-(7-(6-fluoroquinolin-4-yl)spiro[3.5]nonan-2-yl)benzamide], under 0.1 µM; under `COc1ccc2nccc([C@H]3CC[C@@]4(CC3)C[C@@H]4C(=O)Nc3ccc(Cl)cc3)c2c1` [Compound 8-4D], 0.1 to 1 µM. As for `O=C(N[C@H]1CC2(CC[C@H](c3ccnc4ccncc43)CC2)C1)c1ccc(Cl)cc1` (single isomer, unassigned) [Compound 21-5], the figure is over 1 µM; as for `O=C(NN1CCCCC1)[C@H]1C[C@]12CC[C@H](c1ccnc3ccc(F)cc31)CC2` [Compound 1-18], over 1 µM. As for `O=C(NCc1ccc(Cl)cc1)[C@H]1C[C@]12CC[C@H](c1ccnc3ccc(F)cc31)CC2` [Compound 1-21], the figure is over 1 µM; as for `O=C(Nc1ccccc1F)[C@H]1C[C@]12CC[C@H](c1ccnc3ccc(F)cc31)CC2` [Compound 1-16], 0.1 to 1 µM.

Molecule `O=C(Nc1ccc(I)cc1F)[C@H]1C[C@]12CC[C@H](c1ccnc3ccc(F)cc31)CC2` (single isomer, unassigned) [Compound 4-9] showed an IC50 of under 0.1 µM. Under `O=C(Nc1ccc(Cl)cc1)C1CC12CCC(c1ccnc3ccc(F)cc13)CC2` (single isomer, unassigned) [Compound 1-10, N-(4-chlorophenyl)-6-(6-fluoroquinolin-4-yl)spiro[2.5]octane-1-carboxamide] stands under 0.1 µM.

The values above are taken from patent US11180497B2 (ANGEX PHARMACEUTICAL, INC., priority 2017, dated 2021).
